As a reminder, the EC50 is the concentration needed to bring the measured effect to its halfway point. Higher therefore signals weaker potency.

This experiment deals with Keap1 (Homo sapiens (Human), UniProt Q14145). Kind of experiment: HEK293 ARE luciferase assay. Type of experiment: cell-based. As to conditions: HEK-293 ARE firefly luciferase transiently transfected cells; 18 h incubation; mean of 1 to 20 individual measurements. An outline of the steps: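 Transiently transfected HEK-293 ARE firefly luciferase cells (10,000/well, DMEM with 10% FCS) exposed to compound, 10-point curve from 100 μM top, 0.3% DMSO, 18 h at 37 °C. SteadyGlo luminescence; activity normalised to 30 μM tBHQ (stimulator) and DMSO (neutral), activity threshold 50; means of 1-20 measurements.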
Keap1, sequence (Q14145 whole entry): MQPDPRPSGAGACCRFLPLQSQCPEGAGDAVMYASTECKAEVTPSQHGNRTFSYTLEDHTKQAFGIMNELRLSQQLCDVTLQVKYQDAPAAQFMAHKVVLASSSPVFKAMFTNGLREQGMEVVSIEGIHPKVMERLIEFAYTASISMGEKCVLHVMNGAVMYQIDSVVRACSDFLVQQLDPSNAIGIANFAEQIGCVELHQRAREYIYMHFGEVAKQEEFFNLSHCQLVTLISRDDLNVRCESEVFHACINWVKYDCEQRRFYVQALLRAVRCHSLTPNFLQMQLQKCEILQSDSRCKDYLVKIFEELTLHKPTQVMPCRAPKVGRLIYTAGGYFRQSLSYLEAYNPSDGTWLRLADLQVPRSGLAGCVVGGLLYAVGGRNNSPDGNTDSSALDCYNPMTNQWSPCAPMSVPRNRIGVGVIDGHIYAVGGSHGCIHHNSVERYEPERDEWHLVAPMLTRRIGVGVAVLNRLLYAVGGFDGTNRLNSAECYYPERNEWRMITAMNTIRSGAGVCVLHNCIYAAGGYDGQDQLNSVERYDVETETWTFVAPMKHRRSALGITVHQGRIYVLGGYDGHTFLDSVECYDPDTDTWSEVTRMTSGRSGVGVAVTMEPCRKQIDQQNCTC
In turn, `COC1(c2ncc(F)cc2C(F)(F)F)C=C(C#N)C(=O)C(C)(C)C1` (stereo not shown) [Compound 151, 3-[5-fluoro-3-(trifluoromethyl)pyridin-2-yl]-3-methoxy-5,5-dimethyl-6-oxocyclohex-1-ene-1-carbonitrile] came in with a concentration for a half-maximal effect (EC50) of 34 nM.

`COC1(c2ncc(F)cc2C(F)F)C=C(C#N)C(=O)C(C)(C)C1` (stereo not shown) [Compound 152, 3-[3-(difluoromethyl)-5-fluoropyridin-2-yl]-3-methoxy-5,5-dimethyl-6-oxocyclohex-1-ene-1-carbonitrile] showed an EC50 of 47 nM.

The molecule `COC1(c2ncc(F)cc2C)C=C(C#N)C(=O)C2(CCCC2)C1` (stereo not shown) [Compound 153, 9-(5-fluoro-3-methylpyridin-2-yl)-9-methoxy-6-oxospiro[4.5]dec-7-ene-7-carbonitrile] displayed a concentration giving a half-maximal response (EC50) of 7090 nM.

For the molecule `COC1(c2nc(C)c(Br)s2)C=C(C#N)C(=O)C(C)(C)C1` (stereo not shown) [Compound 154, 3-(5-bromo-4-methyl-1,3-thiazol-2-yl)-3-methoxy-5,5-dimethyl-6-oxocyclohex-1-ene-1-carbonitrile], the EC50 stood at 53 nM.

For `COC1(c2nc(C)c(-c3ccccn3)s2)C=C(C#N)C(=O)C(C)(C)C1` (stereo not shown) [Compound 155, 3-methoxy-5,5-dimethyl-3-[4-methyl-5-(pyridin-2-yl)-1,3-thiazol-2-yl]-6-oxocyclohex-1-ene-1-carbonitrile], the concentration for a half-maximal effect (EC50) stood at 161 nM.

In the case of `COC1(c2ncc(F)cc2F)C=C(C#N)C(=O)C2(CC2)C1` (stereo not shown) [Compound 156, 7-(3,5-difluoropyridin-2-yl)-7-methoxy-4-oxospiro[2.5]oct-5-ene-5-carbonitrile], a half-maximal response (EC50) required 249 nM.

In the case of `COC1(c2ncc(Cl)cc2F)C=C(C#N)C(=O)C2(CC2)C1` (stereo not shown) [Compound 157, 7-(5-chloro-3-fluoropyridin-2-yl)-7-methoxy-4-oxospiro[2.5]oct-5-ene-5-carbonitrile], the response was half-maximal at 448 nM (EC50).

In the case of `COC1(c2ncc(Cl)cc2C(F)F)C=C(C#N)C(=O)C(C)(C)C1` (stereo not shown) [Compound 158, 3-[5-chloro-3-(difluoromethyl)pyridin-2-yl]-3-methoxy-5,5-dimethyl-6-oxocyclohex-1-ene-1-carbonitrile], the midpoint of the response, the EC50, lay at 21 nM.

As for `COC1(c2ncc(F)cc2OC(F)F)C=C(C#N)C(=O)C2(CC2)C1` (stereo not shown) [Compound 160, 7-[3-(difluoromethoxy)-5-fluoropyridin-2-yl]-7-methoxy-4-oxospiro[2.5]oct-5-ene-5-carbonitrile], the EC50 came out at 20 nM.

Take `COC1(c2ncc(F)cc2-c2cnn(C)c2)C=C(C#N)C(=O)C(C)(C)C1` (stereo not shown) [Compound 161, 3-[5-fluoro-3-(1-methyl-1H-pyrazol-4-yl)pyridin-2-yl]-3-methoxy-5,5-dimethyl-6-oxocyclohex-1-ene-1-carbonitrile]: the response was half-maximal at 14 nM (EC50).

The molecule `COC1(c2ncc(F)cc2-c2ccc(F)cc2)C=C(C#N)C(=O)C(C)(C)C1` (stereo not shown) [Compound 163, 3-[5-fluoro-3-(4-fluorophenyl)pyridin-2-yl]-3-methoxy-5,5-dimethyl-6-oxocyclohex-1-ene-1-carbonitrile] yielded a concentration for a half-maximal effect (EC50) of 54 nM.

Take `COC1(c2ncc(F)cc2-c2cnn(C)c2C)C=C(C#N)C(=O)C(C)(C)C1` (stereo not shown) [Compound 164, 3-[3-(1,5-dimethyl-1H-pyrazol-4-yl)-5-fluoropyridin-2-yl]-3-methoxy-5,5-dimethyl-6-oxocyclohex-1-ene-1-carbonitrile]: the midpoint of the response, the EC50, lay at 28 nM.

Molecule `COC1(c2ncc(F)cc2C#CC(C)C)C=C(C#N)C(=O)C(C)(C)C1` (stereo not shown) [Compound 165, 3-[5-fluoro-3-(3-methylbut-1-yn-1-yl)pyridin-2-yl]-3-methoxy-5,5-dimethyl-6-oxocyclohex-1-ene-1-carbonitrile] showed a 50% effective concentration (EC50) of 151 nM.

For the molecule `COC1(c2ncc(F)cc2-c2cnn(C3CC3)c2)C=C(C#N)C(=O)C(C)(C)C1` (stereo not shown) [Compound 166, 3-[3-(1-cyclopropyl-1H-pyrazol-4-yl)-5-fluoropyridin-2-yl]-3-methoxy-5,5-dimethyl-6-oxocyclohex-1-ene-1-carbonitrile], a half-maximal effect (EC50) was put at 14 nM.

For the molecule `COC1(c2ncc(F)cc2-c2ccc(=O)n(C)c2)C=C(C#N)C(=O)C(C)(C)C1` (stereo not shown) [Compound 167, 3-(5-fluoro-1′-methyl-6′-oxo[1′,6′-dihydro[3,3′-bipyridine]]-2-yl)-3-methoxy-5,5-dimethyl-6-oxocyclohex-1-ene-1-carbonitrile], the response was half-maximal at 18 nM (EC50).

The molecule `COC1(c2ncc(F)cc2-c2cnc(C)s2)C=C(C#N)C(=O)C(C)(C)C1` (stereo not shown) [Compound 168, 3-[5-fluoro-3-(2-methyl-1,3-thiazol-5-yl)pyridin-2-yl]-3-methoxy-5,5-dimethyl-6-oxocyclohex-1-ene-1-carbonitrile] registered an EC50 of 12 nM.

`CCCc1cccnc1C1(OC)C=C(C#N)C(=O)C(C)(C)C1` (stereo not shown) [Compound 169, 3-methoxy-5,5-dimethyl-6-oxo-3-(3-propylpyridin-2-yl)cyclohex-1-ene-1-carbonitrile] registered a concentration giving a half-maximal response (EC50) of 173 nM.

Consider `COC1(c2ncc(F)cc2-c2ccnc(C)c2)C=C(C#N)C(=O)C(C)(C)C1` (stereo not shown) [Compound 170, 3-(5-fluoro-2′-methyl[3,4′-bipyridin]-2-yl)-3-methoxy-5,5-dimethyl-6-oxocyclohex-1-ene-1-carbonitrile], for which a half-maximal effect (EC50) was put at 12 nM.

In turn, `COC1(c2ncc(F)cc2-c2cccn(C)c2=O)C=C(C#N)C(=O)C(C)(C)C1` (stereo not shown) [Compound 171, 3-(5-fluoro-1′-methyl-2′-oxo[1′,2′-dihydro[3,3′-bipyridine]]-2-yl)-3-methoxy-5,5-dimethyl-6-oxocyclohex-1-ene-1-carbonitrile] showed an EC50 of 136 nM.

As to `COC1(c2ncc(F)cc2-c2cn(C)nc2C)C=C(C#N)C(=O)C(C)(C)C1` (stereo not shown) [Compound 172, 3-[3-(1,3-dimethyl-1H-pyrazol-4-yl)-5-fluoropyridin-2-yl]-3-methoxy-5,5-dimethyl-6-oxocyclohex-1-ene-1-carbonitrile], the half-maximal effective concentration (EC50) worked out at 8 nM.

Turning to `COC1(c2ncc(F)cc2-c2cc(C)nc(C)c2)C=C(C#N)C(=O)C(C)(C)C1` (stereo not shown) [Compound 173, 3-(5-fluoro-2′,6′-dimethyl[3,4′-bipyridin]-2-yl)-3-methoxy-5,5-dimethyl-6-oxocyclohex-1-ene-1-carbonitrile], the response was half-maximal at 15 nM (EC50).

In the case of `COC1(c2ncc(F)cc2OC(F)F)C=C(C#N)C(=O)C(C)(C)C1` (stereo not shown) [Compound 174, 3-[3-(difluoromethoxy)-5-fluoropyridin-2-yl]-3-methoxy-5,5-dimethyl-6-oxocyclohex-1-ene-1-carbonitrile], it took 41 nM to reach a half-maximal effect (EC50).

Molecule `COC1(c2ncc(F)cc2-c2ccnc(C)c2C)C=C(C#N)C(=O)C(C)(C)C1` (stereo not shown) [Compound 175, 3-(5-fluoro-2′,3′-dimethyl[3,4′-bipyridin]-2-yl)-3-methoxy-5,5-dimethyl-6-oxocyclohex-1-ene-1-carbonitrile] came in with an EC50 of 174 nM.

`C/C=C/c1cc(F)cnc1C1(OC)C=C(C#N)C(=O)C(C)(C)C1` (stereo not shown) [Compound 176, 3-{5-fluoro-3-[(1E)-prop-1-en-1-yl]pyridin-2-yl}-3-methoxy-5,5-dimethyl-6-oxocyclohex-1-ene-1-carbonitrile] gave an EC50 of 19 nM.

Regarding `COC1(c2ncc(F)cc2-c2cccnc2C)C=C(C#N)C(=O)C(C)(C)C1` (stereo not shown) [Compound 177, 3-(5-fluoro-2′-methyl[3,3′-bipyridin]-2-yl)-3-methoxy-5,5-dimethyl-6-oxocyclohex-1-ene-1-carbonitrile], the EC50 was 103 nM.

Take `COC1(c2ncc(F)cc2-c2ccns2)C=C(C#N)C(=O)C(C)(C)C1` (stereo not shown) [Compound 178, 3-[5-fluoro-3-(1,2-thiazol-5-yl)pyridin-2-yl]-3-methoxy-5,5-dimethyl-6-oxocyclohex-1-ene-1-carbonitrile]: a half-maximal response (EC50) required 52 nM.

`COC1(c2ncc(F)cc2-c2cnn(-c3ccccc3)c2)C=C(C#N)C(=O)C(C)(C)C1` (stereo not shown) [Compound 179, 3-[5-fluoro-3-(1-phenyl-1H-pyrazol-4-yl)pyridin-2-yl]-3-methoxy-5,5-dimethyl-6-oxocyclohex-1-ene-1-carbonitrile] yielded a 50% effective concentration (EC50) of 7 nM.

The molecule `COC1(c2ncc(F)cc2-c2cnn(C3CCCC3)c2)C=C(C#N)C(=O)C(C)(C)C1` (stereo not shown) [Compound 180, 3-[3-(1-cyclopentyl-1H-pyrazol-4-yl)-5-fluoropyridin-2-yl]-3-methoxy-5,5-dimethyl-6-oxocyclohex-1-ene-1-carbonitrile] had an EC50 of 115 nM.

The molecule `CCn1cc(-c2cc(F)cnc2C2(OC)C=C(C#N)C(=O)C(C)(C)C2)cn1` (stereo not shown) [Compound 181, 3-[3-(1-ethyl-1H-pyrazol-4-yl)-5-fluoropyridin-2-yl]-3-methoxy-5,5-dimethyl-6-oxocyclohex-1-ene-1-carbonitrile] registered a concentration giving a half-maximal response (EC50) of 68 nM.

`COC1(c2ncc(F)cc2-c2cncc(F)c2)C=C(C#N)C(=O)C(C)(C)C1` (stereo not shown) [Compound 182, 3-(5,5′-difluoro[3,3′-bipyridin]-2-yl)-3-methoxy-5,5-dimethyl-6-oxocyclohex-1-ene-1-carbonitrile]: the midpoint of the response, the EC50, lay at 105 nM.

`COC1(c2ncc(F)cc2-c2cnc(C)nc2)C=C(C#N)C(=O)C(C)(C)C1` (stereo not shown) [Compound 183, 3-[5-fluoro-3-(2-methylpyrimidin-5-yl)pyridin-2-yl]-3-methoxy-5,5-dimethyl-6-oxocyclohex-1-ene-1-carbonitrile] displayed a concentration for a half-maximal effect (EC50) of 121 nM.

Turning to `COC1(c2ncc(F)cc2-c2cncc(C#N)c2)C=C(C#N)C(=O)C(C)(C)C1` (stereo not shown) [Compound 184, 2′-(3-cyano-1-methoxy-5,5-dimethyl-4-oxocyclohex-2-en-1-yl)-5′-fluoro[3,3′-bypyridine]-5-carbonitrile], the midpoint of the response, the EC50, lay at 121 nM.

Take `COC1(c2ncc(F)cc2-c2cncc(Cl)c2)C=C(C#N)C(=O)C(C)(C)C1` (stereo not shown) [Compound 185, 3-(5′-chloro-5-fluoro[3,3′-bypyridin]-2-yl)-3-methoxy-5,5-dimethyl-6-oxocyclohex-1-ene-1-carbonitrile]: it took 8 nM to reach a half-maximal effect (EC50).

In turn, `COC1(c2ncc(F)cc2-c2cncc(C(F)(F)F)c2)C=C(C#N)C(=O)C(C)(C)C1` (stereo not shown) [Compound 186, 3-[5-fluoro-5′-(trifluoromethyl)[3,3′-bypyridin]-2-yl]-3-methoxy-5,5-dimethyl-6-oxocyclohex-1-ene-1-carbonitrile] returned a concentration giving a half-maximal response (EC50) of 75 nM.

The values above are taken from patent publication US11479539B2, “Small molecule modulators of the BTB domain of Keap1” (MedImmune Limited, priority 2017, dated 2022).
